Source: PubChem BioAssay AID651581 (Sanford-Burnham Center for Chemical Genomics, 2012)
Active and inactive are the calls of the source. How the calls were made is not given here.

What was measured:
[1] = molecular target: Endothelial PAS domain-containing protein 1 (Homo sapiens) (UniProt Q99814); test: HIF-2a and HIF-1a reporter inhibition panel, dose response, selectivity assay for HIF-2a inhibitor project, cell-based, luminescence (AID 651581)
[2] = molecular target: Hypoxia-inducible factor 1-alpha (Homo sapiens) (UniProt Q16665); test: as above; conditions: HIF-1a
Chain of Hypoxia-inducible factor 1-alpha (Homo sapiens) (Q16665 whole entry, looked up): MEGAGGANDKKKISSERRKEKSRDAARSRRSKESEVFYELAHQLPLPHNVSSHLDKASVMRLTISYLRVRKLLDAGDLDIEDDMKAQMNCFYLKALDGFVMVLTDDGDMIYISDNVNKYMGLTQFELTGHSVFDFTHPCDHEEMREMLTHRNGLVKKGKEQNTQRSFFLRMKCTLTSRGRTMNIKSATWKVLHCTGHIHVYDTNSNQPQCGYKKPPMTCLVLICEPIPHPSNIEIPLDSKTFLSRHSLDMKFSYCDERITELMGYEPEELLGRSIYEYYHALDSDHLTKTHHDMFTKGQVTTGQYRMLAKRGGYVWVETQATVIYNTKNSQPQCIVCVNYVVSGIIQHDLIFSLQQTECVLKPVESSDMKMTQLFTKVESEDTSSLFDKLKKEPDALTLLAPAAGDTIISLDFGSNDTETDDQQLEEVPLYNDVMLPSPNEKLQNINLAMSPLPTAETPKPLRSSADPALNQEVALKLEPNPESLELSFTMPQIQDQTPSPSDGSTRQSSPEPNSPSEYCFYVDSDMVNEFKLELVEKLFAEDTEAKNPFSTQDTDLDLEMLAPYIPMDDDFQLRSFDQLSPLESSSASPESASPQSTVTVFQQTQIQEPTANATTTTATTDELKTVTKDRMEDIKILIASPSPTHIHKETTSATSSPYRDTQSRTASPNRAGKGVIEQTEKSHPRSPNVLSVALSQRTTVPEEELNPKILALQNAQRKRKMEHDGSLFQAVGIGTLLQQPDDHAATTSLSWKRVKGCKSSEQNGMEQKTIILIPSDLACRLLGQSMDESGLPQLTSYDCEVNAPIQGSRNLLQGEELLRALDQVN

| SMILES | IC50 ([1]; HIF-2a PANC, mean of runs) | IC50 ([1]; HIF-2a PANC, run 1) [µM] | IC50 ([1]; HIF-2a PANC, run 2) [µM] | IC50 ([1]; HIF-2a, mean of runs) | IC50 ([1]; HIF-2a, run 1) [µM] | IC50 ([1]; HIF-2a, run 2) [µM] | IC50 ([2]; mean of runs) | IC50 ([2]; run 1) [µM] | IC50 ([2]; run 2) [µM] |
| --- | --- | --- | --- | --- | --- | --- | --- | --- | --- |
| CCOC(=O)NC(=O)COC(=O)CCCSc1nc2ccccc2s1 | 11.3 µM | 12 | 10.7 | 9.56 µM | 8.83 | 10.3 | inactive | 24.2 | 13.4 |
| Cc1ccc(S(=O)(=O)c2ncccc2[N+](=O)[O-])cc1 | 18.7 µM | 20.6 | 16.9 | 9.71 µM | 10 | 9.38 | inactive | 21.3 | 23 |
| COc1ccccc1N1C(=O)C=C(Sc2nc(C)cc(C)n2)C1=O | > 99 µM (inactive) | > 99 | > 99 | inactive | 10.2 | 11.8 | – | 68.3 | > 99 |
| CCCCOC(=O)c1ccc(NC(=S)NC(=O)c2c(Br)c(C)nn2C)cc1 | inactive | 8.11 | 16.2 | 0.894 µM | 0.821 | 0.968 | – | > 99 | > 99 |
| O=C(Nc1cc(S(=O)(=O)N2CCOCC2)ccc1Cl)c1cc([N+](=O)[O-])ccc1Cl | – | > 99 | 80.5 | inactive | 15.1 | 13.9 | inactive | 23.9 | 17.6 |
| Cc1c(CCC(=O)O)c(=O)oc2cc(OCc3ccccc3Br)ccc12 | 5.79 µM | 2.48 | 9.09 | 6.3 µM | 6.05 | 6.54 | inactive | 8.16 | 20.8 |
| C=CS(=O)(=O)c1sc(Cl)c(N2CCOCC2)c1[N+](=O)[O-] | – | > 99 | 15.5 | 8.96 µM | 9.47 | 8.45 | – | 47.5 | > 99 |
| O=C(Nc1ccc(Cl)cc1Cl)c1cccc(N2C(=O)C=CC2=O)c1 | – | > 99 | 28.1 | 8.1 µM | 7.79 | 8.42 | 41.1 µM | 47.8 | 34.5 |
| Cc1nnnn1/C(=C\c1ccccc1)C(=O)OCC(=O)Nc1ccc(Cl)cc1F | 19.9 µM | 19.3 | 20.6 | 8.16 µM | 8.44 | 7.88 | inactive | 16 | 21.2 |

Continued, values first:

| IC50 ([1]; HIF-2a PANC, mean of runs) | IC50 ([1]; HIF-2a PANC, run 1) [µM] | IC50 ([1]; HIF-2a PANC, run 2) [µM] | IC50 ([1]; HIF-2a, mean of runs) | IC50 ([1]; HIF-2a, run 1) [µM] | IC50 ([1]; HIF-2a, run 2) [µM] | IC50 ([2]; mean of runs) | IC50 ([2]; run 1) [µM] | IC50 ([2]; run 2) [µM] | SMILES |
| --- | --- | --- | --- | --- | --- | --- | --- | --- | --- |
| – | > 99 | > 99 | – | < 30 | > 99 | > 99 µM (inactive) | > 99 | > 99 | Cc1nn(-c2ccccc2)c(Cl)c1/C=N/Nc1ccc(Cl)c(C(=O)O)c1 |
| – | > 99 | 77 | 6.18 µM | 6.56 | 5.8 | 26.2 µM | 21.3 | 31.1 | CSC(SC)=C(C#N)C(=O)c1ccccc1 |
| – | > 99 | 49 | inactive | 15 | 14.5 | inactive | 22.8 | 37.2 | CCOC(=O)Cc1csc(NC(=S)NC(=O)c2ccccc2C)n1 |
| – | > 99 | < 30 | 0.781 µM | 0.76 | 0.802 | 26.3 µM | 19 | 33.7 | COc1ccc(OCc2cccc(C(=O)O)c2)cc1 |
